Data from ChEMBL document CHEMBL5131445, “Optimization of a novel piperazinone series as potent selective peripheral covalent BTK inhibitors” (Bioorg Med Chem Lett, 2022).

Experiments:
[1] = test system: BCRP; experiment: Permeability across apical to basolateral side in dog MDCK-BCRP cells; assay type: ADME, cell-based, Canis lupus familiaris; details: read-out: permeability
[2] = target: T1, Tyrosine-protein kinase ITK/TSK (Homo sapiens, UniProt Q08881); experiment: Binding affinity to ITK (unknown origin) assessed as dissociation constant by KINOMEscan analysis
T1 sequence (Q08881 whole entry): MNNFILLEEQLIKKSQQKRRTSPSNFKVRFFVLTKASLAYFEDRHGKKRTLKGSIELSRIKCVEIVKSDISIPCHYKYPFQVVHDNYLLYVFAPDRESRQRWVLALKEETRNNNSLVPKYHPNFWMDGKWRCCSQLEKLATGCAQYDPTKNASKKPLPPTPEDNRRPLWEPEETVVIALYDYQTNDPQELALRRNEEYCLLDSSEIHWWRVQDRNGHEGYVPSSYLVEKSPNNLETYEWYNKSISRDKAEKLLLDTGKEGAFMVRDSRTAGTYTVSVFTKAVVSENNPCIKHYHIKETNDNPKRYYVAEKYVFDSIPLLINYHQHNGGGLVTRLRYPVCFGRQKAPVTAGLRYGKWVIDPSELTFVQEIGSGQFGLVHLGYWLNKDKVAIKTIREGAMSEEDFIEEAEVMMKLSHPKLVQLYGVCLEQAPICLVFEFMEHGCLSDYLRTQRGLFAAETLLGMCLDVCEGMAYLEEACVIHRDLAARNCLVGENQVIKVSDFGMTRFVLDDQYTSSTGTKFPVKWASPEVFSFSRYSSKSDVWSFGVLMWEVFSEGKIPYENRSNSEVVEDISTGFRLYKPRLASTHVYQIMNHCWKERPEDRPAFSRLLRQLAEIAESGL

In the case of `C=CC(=O)N(C)CCOc1c(N)ncnc1-c1ccc(CN2CCN(CC(C)C)CC2=O)c(C)c1`, the Papp A→B [1] is reported as 0.4 ×10⁻⁶ cm/s and the Kd [2] is reported as 30 µM.
